Laboratory results reported in US8765748B2, “Indazolyl, benzimidazolyl, benzotriazolyl substituted indolinone derivatives as kinase inhibitors useful in the treatment of cancer” (University Health Network, priority 2007, dated 2014).
Counter-ions that a name gives are not always drawn.

Biological target: T1, human PLK4 (Homo sapiens, UniProt O00444)
T1 construct: amino terminal GST fusion of residues 1-391 of human PLK4; made in house; host or cells: E. coli
T1 sequence (O00444 1-391): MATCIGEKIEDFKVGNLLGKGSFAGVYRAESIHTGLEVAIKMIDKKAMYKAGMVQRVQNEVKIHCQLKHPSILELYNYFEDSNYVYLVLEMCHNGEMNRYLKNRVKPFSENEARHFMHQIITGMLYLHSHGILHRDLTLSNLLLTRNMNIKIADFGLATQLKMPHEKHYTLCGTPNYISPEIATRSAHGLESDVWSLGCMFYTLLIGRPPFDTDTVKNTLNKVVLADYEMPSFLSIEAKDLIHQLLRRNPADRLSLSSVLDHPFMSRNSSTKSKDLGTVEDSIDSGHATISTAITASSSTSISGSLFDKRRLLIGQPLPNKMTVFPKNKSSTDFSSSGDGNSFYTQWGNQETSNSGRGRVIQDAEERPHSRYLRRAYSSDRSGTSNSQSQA
Assay: PLK4 Inhibition Assay (indirect ELISA)
Type: biochemical
Conditions: 15 μM ATP, 4 nM GST-PLK4; read-out: PLK4 IC50 Ranges
Protocol: The protein was purified from clarified cell extracts after induction at 15° C. overnight using glutathione sepharose, gel permeation chromatography, and ion exchange (Resource Q). The resulting protein was dephosphorylated with lambda phosphatase (NEB cat #P0753), and resolved from the phosphatase using gluthione sepharose. The dephosphorylated GST-PLK4 was stored in aliquots at −80° C. until use. PLK4 activity was measured using an indirect ELISA detection system. […] Compounds were pre-incubated in the presence of enzyme for 15 minutes prior to addition of ATP and the activity remaining quantified using the above described activity assay. […] The IC50 value was determined using a non-linear 4 point logistic curve fit (XLfit4, IDBS) with the formula; (A+(B/(1+((x/C)^D)))), where A=background value, B=range, C=inflection point, D=curve fit parameter.

Row | Compound | IC50
1 | O=C1Nc2cc(-c3cccnc3)ccc2C1=Cc1ccc2cn[nH]c2c1 (mixture of isomers) [Example A28, (E and Z)-3-(3-((1H-indazol-6-yl)methylene)-2-oxoindolin-6-yl)pyridinium 2,2,2-trifluoroacetate] | 5 to 50 µM
2 | Nc1n[nH]c2ccc(C=C3C(=O)Nc4ccccc43)cc12 (mixture of isomers) [Example A40, (E & Z)-3-((3-amino-1H-indazol-5-yl)methylene)indolin-2-one] | 5 to 50 µM
3 | O=C1Nc2ccccc2/C1=C\c1cc(Cl)c2cn[nH]c2c1 [Example A52, (E)-3-((4-chloro-1H-indazol-6-yl)methylene)indolin-2-one] | < 5 µM
4 | O=C1Nc2ccccc2/C1=C/c1cc(Br)c2cn[nH]c2c1 [Example A53b, (Z)-3-((4-bromo-1H-indazol-6-yl)methylene)indolin-2-one] | < 5 µM
5 | O=C1Nc2ccccc2/C1=C\c1ccc2c(/C=C/c3ccc(C(F)(F)F)cc3)n[nH]c2c1 [Example A65, (E & Z)-3-((3-((E)-4-(trifluoromethyl)styryl)-1H-indazol-6-yl)-methylene)-indolin-2-one] | < 5 µM
6 | O=C1Nc2ncccc2/C1=C\c1ccc2[nH]ncc2c1 [Example A68, (E)-3-((1H-indazol-5-yl)methylene)-1H-pyrrolo[2,3-b]pyridin-2(3H)-one] | < 5 µM
7 | O=C1Nc2ccccc2C1=Nc1ccc2cn[nH]c2c1 [Example A73, (E and Z)-3-(1H-indazol-6-ylimino)indolin-2-one] | < 5 µM
8 | Cc1ccc2c(c1)C(=Nc1ccc3cn[nH]c3c1)C(=O)N2 [Example A74, (E and Z)-3-(1H-indazol-6-ylimino)-5-methylindolin-2-one] | < 5 µM
9 | O=C1Nc2ccc(F)cc2C1=Nc1ccc2cn[nH]c2c1 [Example A75, (E and Z)-3-(1H-indazol-6-ylimino)-5-fluoroindolin-2-one] | 5 to 50 µM
10 | O=C1Nc2cc(Br)ccc2C1=Nc1ccc2cn[nH]c2c1 [Example A76, (E and Z)-3-(1H-indazol-6-ylimino)-6-bromoindolin-2-one] | 5 to 50 µM
11 | O=C1Nc2ccccc2C1=Nc1ccc2[nH]ncc2c1 [Example A77, (E and Z)-3-(1H-indazol-5-ylimino)indolin-2-one] | 5 to 50 µM
12 | Cc1ccc2c(c1)C(=Nc1ccc3[nH]ncc3c1)C(=O)N2 [Example A78, (E and Z)-3-(1H-indazol-5-ylimino)-5-methylindolin-2-one] | < 5 µM
13 | O=C1Nc2ccc(F)cc2C1=Nc1ccc2[nH]ncc2c1 [Example A79, (E and Z)-3-(1H-indazol-5-ylimino)-5-fluoroindolin-2-one] | 5 to 50 µM
14 | O=C1Nc2ccccc2/C1=C\c1ccc2c(-c3nccs3)n[nH]c2c1 [Example A92, (E)-3-((3-(thiazol-2-yl)-1H-indazol-6-yl)methylene)indolin-2-one] | < 5 µM
15 | O=C1Nc2ccccc2/C1=C\c1ccc2c(C3CC3)n[nH]c2c1 [Example A102, (E)-3-((3-cyclopropyl-1H-indazol-6-yl)methylene)indolin-2-one] | < 5 µM
16 | O=C1Nc2cccc(Br)c2/C1=C/c1ccc2cn[nH]c2c1 [Example A133, (Z)-3-((1H-indazol-6-yl)methylene)-4-bromoindolin-2-one] | < 5 µM
17 | O=C1Nc2ccc(Cl)nc2/C1=C\c1ccc2cn[nH]c2c1 [Example A134, (E)-3-((1H-indazol-6-yl)methylene)-5-chloro-1H-pyrrolo[3,2-b]pyridin-2(3H)-one] | < 5 µM
18 | COc1cc2c(cc1OC)/C(=C\c1ccc3cn[nH]c3c1)C(=O)N2 [Example A135, (E)-3-((1H-indazol-6-yl)methylene)-5,6-dimethoxyindolin-2-one] | < 5 µM

Next, values leading:

Row | IC50 | Compound
19 | < 5 µM | COC(=O)c1cccc2c1NC(=O)C2=Cc1ccc2cn[nH]c2c1 (mixture of isomers) [Example A46, (E and Z)-methyl 3-((1H-indazol-6-yl)methylene)-2-oxoindoline-7-carboxylate]
20 | < 5 µM | O=CNc1cccc2c1NC(=O)C2=Cc1ccc2cn[nH]c2c1 (mixture of isomers) [Example A50, (E and Z)—N-(3-((1H-indazol-6-yl)methylene)-2-oxoindolin-7-yl)formamide]
21 | < 5 µM | CN1CCN(C(=O)/C=C/c2n[nH]c3cc(C=C4C(=O)Nc5ccccc54)ccc23)CC1 (mixture of isomers) [Example A66, (E and Z)-3-((3-((E)-3-(4-methylpiperazin-1-yl)-3-oxoprop-1-enyl)-1H-indazol-6-yl)methylene)indolin-2-one]
22 | < 5 µM | O=C1Nc2ccc(C(F)(F)F)cc2C1=Cc1ccc2cn[nH]c2c1 (mixture of isomers) [Example A82, (E and Z)-3-((1H-indazol-6-yl)methylene)-5-(trifluoromethyl)-indolin-2-one]
23 | < 5 µM | O=C1Nc2ccccc2C1=Cc1ccc2c(-c3cc4ccccc4[nH]3)n[nH]c2c1 (mixture of isomers) [Example A90, (E and Z)-3-((3-(1H-indol-2-yl)-1H-indazol-6-yl)methylene)indolin-2-one]
24 | < 5 µM | O=C1Nc2ccccc2C1=Cc1ccc2c(-c3cnc4ccccc4c3)n[nH]c2c1 (mixture of isomers) [Example A95, (E and Z)-3-((3-(quinolin-3-yl)-1H-indazol-6-yl)methylene)indolin-2-one]
25 | < 5 µM | O=C1Nc2ccccc2C1=Cc1ccc2c(-c3ccn[nH]3)n[nH]c2c1 (mixture of isomers) [Example A98, (E and Z)-3-((3-(1H-pyrazol-5-yl)-1H-indazol-6-yl)methylene)-indolin-2-one]
26 | < 5 µM | Cn1ccnc1/C=C/c1n[nH]c2cc(C=C3C(=O)Nc4ccccc43)ccc12 (mixture of isomers) [Example A105, (E and Z)-3-((3-((E)-2-(1-methyl-1H-imidazol-2-yl)vinyl)-1H-indazol-6-yl)methylene)indolin-2-one]
27 | < 5 µM | O=C1Nc2ccccc2C1=Cc1ccc2[nH]nc(/C=C/c3ccncc3)c2c1 (mixture of isomers) [Example A131, (E and Z)-3-((3-((E)-2-(pyridin-4-yl)vinyl)-1H-indazol-5-yl)-methylene)indolin-2-one hydrochloride]
28 | < 5 µM | O=C1Nc2ccccc2C1=Cc1ccc2c(/C=C/c3ccc(CN4CCOCC4)cc3)n[nH]c2c1 (mixture of isomers) [Example A154, (E and Z)-3-((3-(4-(morpholinomethyl)styryl)-1H-indazol-6-yl)-methylene)indolin-2-one]
29 | < 5 µM | CN1CCN(c2ccc(-c3n[nH]c4ccc(C=C5C(=O)Nc6ccccc65)cc34)cn2)CC1 (mixture of isomers) [Example A155, (E and Z)-3-((3-(6-(4-methylpiperazin-1-yl)pyridin-3-yl)-1H-indazol-5-yl)methylene)indolin-2-one]
30 | < 5 µM | O=C1Nc2ccccc2/C1=C\c1ccc2c(I)n[nH]c2c1 [Example A39, (E)-3-((3-iodo-1H-indazol-6-yl)methylene)indolin-2-one]
31 | < 5 µM | O=C1Nc2c(Br)cccc2/C1=C\c1ccc2cn[nH]c2c1 [Example A44, (E)-3-((1H-indazol-6-yl)methylene)-7-bromoindolin-2-one]
32 | < 5 µM | CC(C)NC(=O)Nc1cccc2c1NC(=O)/C2=C/c1ccc2cn[nH]c2c1 [Example A48, (E)-1-(3-((1H-indazol-6-yl)methylene)-2-oxoindolin-7-yl)-3-isopropyl-urea]
